Laboratory results as given in patent US11061017B2, “High throughput and functional screening method for muscle related disorders and biological processes” (CYTOO, priority 2015, dated 2021).

Assays:
[1] = tested on: myotubes from a healthy donor with chemically induced atrophy; assay: Atrophy induction and atrophy rescue assay (muscle disuse or wasting model); type: cell-based, human; conditions: for reduction of myotube area (atrophy induction) / rescue of atrophy induced by dexamethasone: dexamethasone 100 μM; for reduction of myotube area (atrophy induction) / rescue of atrophy induced by myostatin: myostatin 4.8 nM; for reduction of myotube area (atrophy induction) / rescue of atrophy induced by IL1-β: IL1-β 1.16 nM; for reduction of myotube area (atrophy induction) / rescue of atrophy induced by TNF-α: TNF-α 115 pM; for reduction of myotube area (atrophy induction): 96 hours; for rescue of atrophy induced by IL1-β / rescue of atrophy induced by TNF-α / rescue of atrophy induced by dexamethasone / rescue of atrophy induced by myostatin: IGF-1 18.75 nM, trichostatin A 300 nM
From the text: Another possible application is to mimic muscle wasting disorders (cachexia, sarcopenia) by chemically inducing atrophy on myotubes from healthy donors and then to screen compounds potentially rescuing the atrophic phenotype. As patients suffering from a large decrease in muscle mass, primary myoblast samples or myofibers can't be collected for ethical reasons and artificial in vitro strategies are necessary. Nonetheless, signaling pathways impacted in cachexia and sarcopenia are well described in the literature implicating three major cascades: glucocorticoid, Smad2/3 and the NF-κB pathway. Molecules known to reproduce these molecular mechanisms can therefore be used to simulate pathological myotubes. For example, glucocorticoid pathway can be mimicked by dexamethasone treatment, Smad2/3 pathway by myostatin and TGF-β treatments, and NF-κB pathway by IL1-β and TNF-α treatments.
To do so, human primary myoblasts (HSMM, Lonza), from a healthy donor, are cultured on fibronectin coated surfaces within growth medium (Lonza SkGM™-2 cell culture Kit) during 24 hours. Then cells are cultured within differentiation medium (DMEM/F12, 2% Horse Serum, 0.5% P/S) for 24 hours. Candidates with potential rescue effect are added to the forming myotubes 15 minutes before the atrophic inducer. Then myotubes are cultured during 96 hours. Cells are fixed and an immunostaining is realized against troponin T and nuclei. Images are acquired using an Operetta high content imaging system (PerkinElmer). Automated image processing has been developed by the inventors using the Acapella software library (PerkinElmer).

[2] = tested on: myotubes differentiated from healthy donors (human primary myoblasts HSMM, Lonza); assay: Myotube shortening assay (contraction induction, troponin T immunostaining, image analysis); type: cell-based; conditions: 4-chloro-m-cresol 1.5 mM, 3 minutes
Procedure: Human primary myoblasts (HSMM, Lonza) are cultured on fibronectin coated surfaces within growth medium (Lonza SkGM™-2 cell culture Kit) during 24 hours. Then cells are cultured within differentiation medium (DMEM/F12, 2% Horse Serum, 0.5% P/S) for 5 days. Compounds (4-chloro-m-cresol, 1.5 mM) are added to myotubes during 3 minutes. Cells are fixed and an immunostaining is realized against troponin T and nuclei. Images are acquired using an Operetta high content imaging system (PerkinElmer). Automated image segmentation and analysis methods has been developed by the inventors using the Acapella software library (PerkinElmer). Then, objects are analyzed to extract basic parameters such as myotube count, nuclei count, myotube morphology (including their length, width, area), fusion index (through the percentage nuclei embedded within myotubes). However, the main descriptor of myotube shortening is the quantification of the number of spots, which are objects obtained due to myotube detachment from the culture device and subsequent folding of at least one extremity of the myotube on itself (FIG. 2B, right). Taking said parameters into account, aberrant myotubes are removed. An advanced descriptor is additionally measured, as the number of myotubes encompassing a length lower than 470 μm. […] As myotubes treatment with 4-chloro-m-cresol induces 25% decrease in tube area, and 50% increase in staining intensity readouts, the use of spot number quantification largely increases the assay window (1000%) with a reduced variability, ensuring a full compatibility of the assay with compounds screening (Z′-factors higher than 0.7).

myotubes from DMD donors = assay: DMD myotube morphology rescue assay; type: cell-based, human; conditions: for increase of fusion index in DMD myotubes / increase of tube number in DMD myotubes: prednisone 500 nM, deflazacort 50 nM
Procedure: Using previously described protocol, human primary myoblasts, are cultured on fibronectin coated surfaces within growth medium during 24 hours. Then cells are cultured within differentiation medium (DMEM/F12, 2% Horse Serum, 0.5% P/S) for 24 hours. Therapeutic drug candidates are added and myotubes are then cultured during 96 hours. Cells are fixed and an immunostaining is realized against troponin T and nuclei. Images are acquired using an Operetta high content imaging system (PerkinElmer). Automated image processing was been developed by the inventors using the Acapella software library (PerkinElmer).

[3] = tested on: myotubes differentiated from healthy donors; assay: Morphology assay (myotube area and nuclei count, dose response); type: cell-based, human; conditions: 96 hours, compared to untreated control
Procedure: Human primary myoblasts (HSMM, Lonza), from a healthy donor, are cultured on fibronectin coated surfaces within growth medium (Lonza SkGM™-2 cell culture Kit) during 24 hours. Then cells are cultured within differentiation medium (DMEM/F12, 2% Horse Serum, 0.5% P/S) for 24 hours. Compounds are added to the forming myotubes during 96 hours. Cells are fixed and an immunostaining is realized against troponin T and nuclei. Images are acquired using an Operetta high content imaging system (PerkinElmer).
In order to characterize compounds mode of action on the myotube model (including myoblasts differentiation, myotube maturation, myotube hypertrophy, myotube atrophy, or cell viability), automated image segmentation and analysis methods has been developed by the inventors using the Acapella software library (PerkinElmer).
First, customized segmentations of myotubes and nuclei are performed.
Second, objects are analyzed to extract basic parameters such as myotube count, nuclei count, myotube morphology (including their length, width, area, and orientation), fusion index (through the percentage nuclei within myotubes). Taking said parameters into account, aberrant myotubes are removed.

[4] = tested on: myotubes differentiated from myoblasts of healthy donors; assay: Glucose metabolism assay (Glucose Uptake Colorimetric Assay Kit); type: cell-based, human
Procedure: (§1) Human primary myoblasts from a healthy or a type I diabetic donor, are cultured on fibronectin coated surfaces within growth medium during 24 hours. Then cells are cultured within differentiation medium (DMEM/F12, 2% Horse Serum, 0.5% P/S) for 24 hours. Therapeutic drug candidates are added and myotubes are then cultured during 96 hours. Compound effect on glucose metabolism is performed by using the indications provided by the manufacturer (Glucose Uptake Colorimetric Assay Kit, Sigma).

[5] = tested on: myotubes differentiated from healthy donors; assay: Calcium release assay in myotubes (Fluo-4 time-lapse), inducers; type: cell-based, human; conditions: acetylcholine 20 μM, caffeine 10 mM, IGF-1 37 nM, 30 seconds time-lapse
Procedure: (§2) As myotube shortening can also take origin from compound toxicity, physiological cues of myotube contraction need to be validated. Hit validation is performed using a secondary assay estimating the level of calcium release to myotube cytoplasm. Myotubes differentiated from donors are cultured during 5 days and stained with a calcium sensitive florescent probe Fluo-4 (2 μM) in a dedicated buffer (145 mM NaCl, 5 mM KCl, 1 mM CaCl2, 1 mM MgCl2, 5.6 mM glucose, 10 mM Hepes, pH 7.4). A single compound is added to cultured myotubes and a time-lapse acquisition is performed during 30 seconds (Eclipse-Ti, Nikon), by taking a picture each second, to follow the increase in fluorescence intensity of the probe due to calcium entry into the cytoplasm. After fluorescence background removal, a relative fluorescence intensity is calculated in the whole myotubes for each timepoint, normalizing to the first value set up at 100%.

[6] = tested on: myotubes from healthy donor; assay: Inhibition of calcium release after acetylcholine or 4-chloro-m-cresol induction (Fluo-4); type: cell-based, human; conditions: tubocurarine 100 μM, succinylcholine 25 μM; for decrease of relative fluorescence intensity after acetylcholine induction: acetylcholine 20 μM induction, inhibitor added 15 minutes before, verapamil, nifedipine, nicardipine 40 μM; for effect on 4-chloro-m-cresol induction of calcium release: 4-chloro-m-cresol 400 μM induction
Procedure: as §2
Myoblasts are differentiated during 5 days in culture, then potential inhibitors are added in calcium buffer 15 minutes before an acethycholine treatment. […] Moreover mode of action characterization can be optimized by comparing a compound effect on both acethycholine and 4-chloro-m-cresol inductions. […] Even if a time-lapse method is described here using a classical widefield microscope, this embodiment of the invention is fully compatible with kinetic plate readers systems allowing automated calcium flow measurements, including the Hamamatsu FDSS.

[7] = tested on: myotubes from healthy and type I diabetes donors; assay: Morphology of myotubes from healthy and type I diabetes donors; type: cell-based, human; conditions: insulin 10 μM
Procedure: as §1
FIG. 10 is a quantification of some relevant morphological parameters, as tube number, fusion index, tube area tube width, of myotubes from healthy and type I diabetes donors, cultured in control and insulin (10 μM) conditions according to the invention. […] This illustrates the specificity of metabolisms assays on compounds detection and the complementarity of the approaches to detect new drugs rescuing specifically metabolic disorders.

Compound: C[C@@H]1C[C@H]2[C@@H]3CCC4=CC(=O)C=C[C@]4(C)[C@@]3(F)[C@@H](O)C[C@]2(C)[C@@]1(O)C(=O)CO [dexamethasone]
- reduction of myotube area (atrophy induction) [1]: 60%

Compound: Cc1cc(O)ccc1Cl [4-chloro-m-cresol]
- spot number quantification, assay window [2]: 1000%
- decrease in tube area ([2]; myotubes cultured 5 days): 25%
- increase in staining intensity ([2]; troponin T staining): 50%

Compound: C[C@]12C=CC(=O)C=C1CC[C@@H]1[C@@H]2C(=O)C[C@@]2(C)[C@H]1CC[C@]2(O)C(=O)CO [Prednisone, prednisone]
- increase of fusion index in DMD myotubes (myotubes from DMD donors): 28%
- increase of tube number in DMD myotubes (myotubes from DMD donors): 20%

Compound: TGF-β: atrophic reference compound, Smad2/3 pathway
- effect on myotube area [3]: atrophic
- effect on nuclei count [3]: without nuclei count alteration

Compound: IGF-1: hypertrophic reference compound
- effect on myotube area [3]: hypertrophic
- effect on nuclei count [3]: without nuclei count alteration
- rescue of fusion index in DMD myotubes (myotubes from DMD donors; IGF-1 37 nM, 96 hours): 204%
- rescue of myotube width in DMD myotubes (myotubes from DMD donors; IGF-1 37 nM, 96 hours): 15%
- rescue of tube number in DMD myotubes (myotubes from DMD donors; IGF-1 37 nM, 96 hours): 109%
- rescue of atrophy induced by IL1-β [1]: 85%
- rescue of atrophy induced by TNF-α [1]: 89%
- rescue of atrophy induced by dexamethasone [1]: 275%
- rescue of atrophy induced by myostatin [1]: 71%
- effect on glucose uptake ([4]; IGF-1 37 nM): no effect
- increase of relative fluorescence intensity (calcium release) compared to steady state level [5]: 20%

Compound: COC(=O)C1=C(C)NC(C)=C(C(=O)OCCN(C)Cc2ccccc2)C1c1cccc([N+](=O)[O-])c1 (stereo not drawn) [nicardipine]
- decrease of relative fluorescence intensity after acetylcholine induction [6]: 91%

Compound: Cn1c(=O)c2c(ncn2C)n(C)c1=O [caffeine]
- increase of relative fluorescence intensity (calcium release) compared to steady state level [5]: 55%

Compound: TNF-α
- reduction of myotube area (atrophy induction) [1]: 55%

Compound: myostatin: atrophic reference compound, Smad2/3 pathway
- effect on nuclei count [3]: decrease in nuclei count
- reduction of myotube area (atrophy induction) [1]: 30%

Compound: CC(=O)OCC[N+](C)(C)C [acethylcholine, acetylcholine]
- increase of relative fluorescence intensity (calcium release) compared to steady state level [5]: 305%

Compound: COc1cc2c3cc1Oc1cc(ccc1O)C[C@@H]1c4c(cc(OC)c(O)c4Oc4ccc(cc4)C[C@@H]3N(C)CC2)CC[N+]1(C)C [Tubocurarine, tubocurarine]
- effect on 4-chloro-m-cresol induction of calcium release [6]: 0%
- decrease of relative fluorescence intensity after acetylcholine induction [6]: 96%

Compound: IL1-β: atrophy inducer, NF-κB pathway
- reduction of myotube area (atrophy induction) [1]: 35%

Compound: C[N+](C)(C)CCOC(=O)CCC(=O)OCC[N+](C)(C)C [succinylcholine]
- effect on 4-chloro-m-cresol induction of calcium release [6]: −30%
- decrease of relative fluorescence intensity after acetylcholine induction [6]: 94%

Compound: CC(=O)OCC(=O)[C@@]12N=C(C)O[C@@H]1C[C@H]1[C@@H]3CCC4=CC(=O)C=C[C@]4(C)[C@H]3[C@@H](O)C[C@@]12C [deflazacort]
- increase of fusion index in DMD myotubes (myotubes from DMD donors): 59%
- increase of tube number in DMD myotubes (myotubes from DMD donors): 54%

Compound: Insulin
- effect on myotube morphology (tube number, fusion index, tube area, tube width) [7]: does not modify myotube morphology
- increase of glucose metabolism ([4]; insulin 10 μM): 67%

Compound: CC(/C=C/C(=O)NO)=C\[C@@H](C)C(=O)c1ccc(N(C)C)cc1 [trichostatin A]
- effect on myotube area [3]: atrophy/hypertrophy biphasic effects
- rescue of atrophy induced by IL1-β [1]: 54%
- rescue of atrophy induced by TNF-α [1]: 100%
- rescue of atrophy induced by dexamethasone [1]: 175%
- rescue of atrophy induced by myostatin [1]: 71%
